According to the NIST ThermoML archive (doi:10.1016/j.fluid.2015.07.030):
± gives the expanded uncertainty stated by the source.

What was measured:
[1] = refractive index (other wavelength) (dimensionless); conditions: 95.99 kPa, Liquid, Wavelength=404.7 nm, Standard Abbe refractometry
[2] = Liquid; for vapor or sublimation pressure: Ebulliometric method (Recirculating still); for mass density: 95.99 kPa, Vibrating tube method
[3] = xn = mol fraction of the nth substance listed; conditions: 293.15 K; 95.99 kPa; Liquid; Vibrating tube method; x1 = 1
[4] = refractive index (other wavelength) (dimensionless); xn = mol fraction of the nth substance listed; conditions: 95.99 kPa, Liquid, Standard Abbe refractometry, x1 = 1

O [water]
Conditions	refractive index, 293.15 K	refractive index, 298.15 K	refractive index, 303.15 K	refractive index, 308.15 K	refractive index, 313.15 K	vapor or sublimation pressure, 356.16 K [kPa]	vapor or sublimation pressure, 361.89 K [kPa]	vapor or sublimation pressure, 366.73 K [kPa]	vapor or sublimation pressure, 371.71 K [kPa]
[1]	1.33325 ± 0.00031 [middle of 9 runs]	1.33262 ± 0.00031 [middle of 9 runs]	1.33203 ± 0.00031 [middle of 9 runs]	1.33136 ± 0.00031 [middle of 9 runs]	1.33066 ± 0.00031 [middle of 9 runs]	–	–	–	–
[2]	–	–	–	–	–	53.33 ± 0.37	66.66 ± 0.5	79.99 ± 0.6	95.99 ± 0.77

O [water] + OCCOCCOCCO
Conditions	mass density [kg/m3]
[3]	998.27 ± 0.2

refractive index, [4]
Conditions	Wavelength=404.7 nm	Wavelength=435.8 nm	Wavelength=486.1 nm	Wavelength=546.1 nm	Wavelength=587.6 nm	Wavelength=589.3 nm	Wavelength=632.8 nm	Wavelength=644 nm	Wavelength=706.5 nm
293.15 K	1.34287 ± 0.00031	1.34033 ± 0.00031	1.33728 ± 0.00031	–	1.33325 ± 0.00031	1.332 ± 0.00031	1.33194 ± 0.00031	1.33164 ± 0.00031	1.33018 ± 0.00031
298.15 K	1.34223 ± 0.00031	1.33969 ± 0.00031	1.33606 ± 0.00031	1.33405 ± 0.00033	1.33262 ± 0.00031	1.33257 ± 0.00031	1.33132 ± 0.00031	1.33103 ± 0.00031	1.32956 ± 0.00031
303.15 K	1.3416 ± 0.00031	1.33908 ± 0.00031	1.33606 ± 0.00031	1.33344 ± 0.00031	1.33203 ± 0.00031	1.33198 ± 0.00031	1.33074 ± 0.00031	1.33045 ± 0.00031	1.32898 ± 0.00031
308.15 K	1.34092 ± 0.00031	1.33843 ± 0.00031	1.33538 ± 0.00031	1.33278 ± 0.00031	1.33136 ± 0.00031	1.33131 ± 0.00031	1.33007 ± 0.00031	1.32979 ± 0.00031	1.32834 ± 0.00031
313.15 K	1.3402 ± 0.00031	1.3377 ± 0.00031	1.33466 ± 0.00031	1.33207 ± 0.00031	1.33066 ± 0.00031	1.33061 ± 0.00031	1.32937 ± 0.00031	1.32908 ± 0.00031	1.32764 ± 0.00031

OCCOCCOCCO [triethylene glycol]
Conditions	mass density, [2] [kg/m3]	refractive index, [1]	vapor or sublimation pressure, [2] [kPa]
293.15 K	1123.12 ± 0.25	1.45619 ± 0.00033 [middle of 9 runs]	–
298.15 K	1119.01 ± 0.25	1.45447 ± 0.00033 [middle of 9 runs]	–
303.15 K	1114.79 ± 0.25	1.45273 ± 0.00033 [middle of 9 runs]	–
308.15 K	1110.81 ± 0.25	1.45106 ± 0.00033 [middle of 9 runs]	–
313.15 K	1106.7 ± 0.25	1.44927 ± 0.00033 [middle of 9 runs]	–
535.65 K	–	–	53.33 ± 0.48
543.87 K	–	–	66.66 ± 0.67
551.33 K	–	–	79.99 ± 0.8
559.01 K	–	–	95.99 ± 1
